Values joined by “and” are separate entries in the source; they are usually repeats but may differ in a detail not shown here. Identical values can stand only once.
Legend:
Type in all cases: physicochemical
[1] = Powder XRD after humidity exposure; conditions: 75% relative humidity, ambient temperature, 5 days
Method: A Rigaku DMAX-A X-ray diffractometer is employed for the acquisition of the powder XRD patterns. The instrument is operated with the copper K-L3 radiation at 1.5406 Å. The major instrumental parameters are set as follows: 40 KV voltage, 30 mA current, beam aperture of 1° and detector aperture (receiving slit) of 0.30°. Patterns are scanned over the range of 3-40° two-theta angles with a scan rate of 1.5° two-theta/min (step size of 0.05° and counting time at 2 second/step). Samples are ground to fine powders and packed into an aluminum tray.

[2] = Stability of the solid forms to phase transformation (overall finding); conditions: variety of conditions
[3] = Solubility of the quinolone, Forms I and III, in ethyl acetate; conditions: 20° C, two values given
Method: Bulk drug samples are prepared by dissolving the material in mobile phase at a final concentration of approximately 0.25 to 0.5 mg/ml. For solubility experiments, 100 mcl aliquots of ethyl acetate solutions are withdrawn and placed directly into HPLC autosampler vials. A gentle stream of nitrogen gas is used to evaporate the solvent in the sample vials. The solids are reconstituted with 0.5 ml of HPLC mobile phase prior to analysis.
Solubilities are measured in ethyl acetate. Five to ten milligrams of bulk drug are placed into an amber autoinjector vial, and 3.0 ml of ethyl acetate are added. The vials are capped and shaken for intervals up to 24 hours at room temperature using a Burrell model BB wrist-action shaker. Aliquots are withdrawn from the supernate after centrifugation. The final sample is taken from a quiescent solution which had not been shaken since the 24 hour timepoint.
The solubilities of Forms I and III were determined in ethyl acetate at room temperature; the solubility data for each form was gathered simultaneously, to assure that each form's solubility was measured under identical conditions. Ethyl acetate was employed as an aprotic solvent yielding fairly low equilibrium solubilities of the quinolone; ethyl acetate has been used to evaluate the difference in free energy of polymorphic forms of an antinociceptive drug, as described by K. Raghavan et al., J. Pharm. Biomed. Anal. Vol.12 (6), pp. 777-785 (1994). Under the assumption that the solubilities in TABLE S are consistent with the dilute solution limit, we can use the following expression to calculate the difference in Gibbs free energy between Form I and Form III: [formula] where "sx " is the solubility of Form x in a sufficiently dilute solution, R is the gas constant, and T is the absolute temperature. Using the data in Table 1, we find that the Gibbs free energy of Form III is lower than that of Form I by 7.7±0.2 kJ/mole.

[4] = Isothermal calorimetry (ITC) of Form I to Form III conversion
Method: Isothermal calorimetry (ITC) experiments are conducted using a model 2277 microcalorimeter made by ThermoMetric (see Suurkuusk, J.:Wadso, I. Chem. Scr. (1982) Vol. 20 pp. 155-163). The Digitam® version 2.1 software from Thermometric is used to display the data and to integrate the total heat obtained from the samples. Heat flow is monitored as a function of time at 60° C. and at 40° C. Both glass and stainless steel ampules are used to hold the solid samples and the reference material (quartz sand). Samples are thermally equilibrated for a period ranging from 15 minutes (glass ampules) to 1 hour (stainless steel ampules) prior to recording thermal data. The weight of the samples ranged from about 75 to 300 mg. Samples in glass ampules are equilibrated via the isopiestic method at 53% or 75% RH in chambers containing saturated solutions of sodium chloride or calcium nitrate tetrahydrate. The ampules are capped immediately after removing the samples. Other samples are equilibrated using "microhygrostats" containing small quantities of saturated salt solutions which are sealed within the ampules. This arrangement provided for nearly constant relative humidity as the crystal conversion proceeded.
We therefore studied the transformation of samples after equilibration at […] and 75% RH. […] HPLC analysis of the reaction product confirmed that the 60° C. ITC profiles contained negligible contributions from chemical decomposition.
A detailed explanation of FIG. 9 follows. […] Trace (a) is recorded from a sample of Form I equilibrated to 75% relative humidity before sealing the sample container and exposing it to the 60° C. conditions in the calorimeter. Trace (b) is recorded for a sample of Form I at 60° C., but a 75% relative humidity "microhygrostat" is placed in the sample container just prior to recording the data. The conversion is delayed from that of trace (a) due to the fact that the water must be transported from the microhygrostat to the Form I crystals during the experiment. Trace (c) is recorded for a sample of Form I at 60° C., but the sample was equilibrated at 53% relative humidity prior to sealing the sample container.
This trace results from placing a 75% relative humidity microhygrostat into the sample container just prior to recording the data. The sample is held at 40° C. in the calorimeter; the heat flow results as the Form I material converts to Form III.

Solubility, concentration ([3]; 1 hour, 60 min): 2890 µg/mL and 2780 µg/mL
Solubility, concentration ([3]; 2 hours, 120 min): 2180 µg/mL and 2990 µg/mL
Solubility, concentration ([3]; 4.5 hours, 270 min): 3010 µg/mL and 3110 µg/mL
Solubility, concentration ([3]; 18 hours, 1080 min): 3020 µg/mL and 3080 µg/mL
Solubility, concentration ([3]; 24 hours, 1440 min): 3240 µg/mL and 3320 µg/mL
Solubility, concentration ([3]; 67.5 hours (not shaken after 24 hours), 4050 min): 3220 µg/mL and 3240 µg/mL
Conversion exotherm, beginning ([4]; 40° C, 75% RH microhygrostat): about 6 hours
Conversion exotherm, end ([4]; 40° C, 75% RH microhygrostat): about 50 hours
Integrated enthalpy change, low moisture sample ([4]; 60° C, after 80 hours, mixture of Forms I and III): about 10 J/g
Final state of high moisture sample (in words) ([4]; 60° C, equilibrated at 75% RH, by XRD and DSC): converted completely to Form III
Initial water content of Form I sample ([4]; before ITC at 40° C): 0.54%
Lowest temperature at which conversion of Form I to Form III was observed ([4]; microcalorimeter): 40 °C
SMILES: CN[C@@H](C)[C@@H]1CCN(c2c(F)cc3c(=O)c(C(=O)O)cn(C4CC4)c3c2OC)C1 [Form I, [S-(R*,S*)]-1-cyclopropyl-6-fluoro-1,4-dihydro-8-methoxy-7-[3-[1-(methylamino)ethyl]-1-pyrrolidinyl]-4-oxo-3-quinolinecarboxylic acid]
Diffraction pattern after humidity exposure [1]: does not change after Form I is exposed to 75% relative humidity at ambient temperature for 5 days
Stability to transformation (in words) [2]: undergo phase transformations under a variety of conditions
Rate of conversion Form I to Form III, dependence on humidity ([4]; 60° C, 51% vs 75% RH): slower at 51% RH than at 75% RH by about two orders of magnitude
Conversion of Form I to Form III under dry conditions (in words) ([4]; > 7 days at 40° C./50% RH or 5 days at 60° C.): did not convert to Form III under dry conditions, even after greater than 7 days at 40° C./50% RH or after 5 days at 60 °C
Conversion of Form I to Form III (in words) ([4]; equilibrated at 75% RH, 60° C): convert completely to Form III in less than one day at 60 °C
Conversion of Form I to Form III (in words) ([4]; initial water activity at least 53% RH): direct conversion of Form I to Form III occurs without the formation of Form II
